pIC50: −log10 of the molar value.
Assays:
PI3K [1] = molecular target: T1, PI3K (Homo sapiens, UniProt P42336); test: Fluorescence polarization assay for PI3K; assay type: biochemical; details: PI3 Kinase α; read-out: PI3 Kinase α IC50
T1 construct: PI3 Kinase α IC50; other: PI3 Kinase α; other: PI3 Kinase α isoform, fluorescence polarization
Procedure, shortened: (§1)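 Fluorescence-polarization competition readout: after 30–60 min of PIP2/ATP turnover in 1% DMSO, a stop mix with GST-GRP (70 nM) and red probe (10 nM) was added.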

PI3K [2] = molecular target: T2, PI3K (Homo sapiens, UniProt P48736); test: Fluorescence polarization assay for PI3K; assay type: biochemical; details: PI3 Kinase γ; read-out: PI3 Kinase γ IC50
T2 construct: PI3 Kinase γ IC50; other: PI3 Kinase γ; other: PI3 Kinase γ isoform, fluorescence polarization
T2 sequence (P48736 whole entry, canonical isoform): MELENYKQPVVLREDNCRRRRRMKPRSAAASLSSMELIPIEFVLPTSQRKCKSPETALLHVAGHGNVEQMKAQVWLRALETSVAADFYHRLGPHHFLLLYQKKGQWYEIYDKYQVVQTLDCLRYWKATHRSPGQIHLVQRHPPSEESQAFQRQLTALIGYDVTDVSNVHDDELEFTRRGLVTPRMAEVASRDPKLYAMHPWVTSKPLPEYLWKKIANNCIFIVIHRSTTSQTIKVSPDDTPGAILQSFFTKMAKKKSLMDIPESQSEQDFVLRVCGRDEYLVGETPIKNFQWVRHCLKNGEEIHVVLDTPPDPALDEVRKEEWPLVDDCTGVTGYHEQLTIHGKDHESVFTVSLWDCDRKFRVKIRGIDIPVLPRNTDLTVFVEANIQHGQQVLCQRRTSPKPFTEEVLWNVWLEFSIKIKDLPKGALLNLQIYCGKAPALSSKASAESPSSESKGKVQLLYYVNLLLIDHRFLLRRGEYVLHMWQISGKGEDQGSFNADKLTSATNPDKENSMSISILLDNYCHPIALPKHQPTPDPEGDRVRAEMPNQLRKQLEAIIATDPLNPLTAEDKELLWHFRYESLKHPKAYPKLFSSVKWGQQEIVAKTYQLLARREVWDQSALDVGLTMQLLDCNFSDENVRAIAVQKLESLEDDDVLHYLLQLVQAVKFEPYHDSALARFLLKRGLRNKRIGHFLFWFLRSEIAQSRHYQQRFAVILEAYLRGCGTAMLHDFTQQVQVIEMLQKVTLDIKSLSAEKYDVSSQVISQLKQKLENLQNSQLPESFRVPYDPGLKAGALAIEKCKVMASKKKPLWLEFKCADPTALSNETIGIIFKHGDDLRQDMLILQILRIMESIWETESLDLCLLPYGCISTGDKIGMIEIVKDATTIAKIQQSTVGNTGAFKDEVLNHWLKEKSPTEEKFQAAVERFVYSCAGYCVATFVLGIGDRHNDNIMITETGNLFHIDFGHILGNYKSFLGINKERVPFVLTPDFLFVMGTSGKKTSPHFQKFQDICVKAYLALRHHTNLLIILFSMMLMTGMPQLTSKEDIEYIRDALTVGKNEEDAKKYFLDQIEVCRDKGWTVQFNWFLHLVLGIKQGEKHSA
Procedure, shortened: as §1

prostate line LNCap = test: In vitro cell culture growth assay (MTS), LNCap; assay type: cell-based; details: Homo sapiens, LNCaP, 72 h, LNCap cells, three days after drug treatment
Procedure, shortened: (§2)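 The readout was MTS dye metabolism at 490 nm, taken after 3-day drug exposure that began the day after seeding. Growth was expressed as percent of vehicle-treated wells in the same plate.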

Human mTOR (FLAG-TOR) = molecular target: T3, Human mTOR (FLAG-TOR) (Homo sapiens, UniProt P42345); test: Human mTOR kinase assay with purified enzyme, DELFIA format; assay type: biochemical
T3 construct: FLAG
Procedure, shortened: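 DELFIA readout: Eu-anti-P(T389)-S6K antibody (40 ng/mL, 1 h) on captured His6-S6K from the stopped reaction. Kinase step used purified FLAG-tagged human mTOR with test compound in HEPES (pH 7.4)/MnCl2/DTT buffer, 2 h at room temperature (linear 1–6 h), terminated by EDTA/EGTA.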

breast line MDA468 = test: In vitro cell culture growth assay (MTS), MDA468; assay type: cell-based; details: Homo sapiens, 72 h, MDA468 cells, three days after drug treatment
Procedure, shortened: as §2

T1 sequence (P42336 whole entry, canonical isoform): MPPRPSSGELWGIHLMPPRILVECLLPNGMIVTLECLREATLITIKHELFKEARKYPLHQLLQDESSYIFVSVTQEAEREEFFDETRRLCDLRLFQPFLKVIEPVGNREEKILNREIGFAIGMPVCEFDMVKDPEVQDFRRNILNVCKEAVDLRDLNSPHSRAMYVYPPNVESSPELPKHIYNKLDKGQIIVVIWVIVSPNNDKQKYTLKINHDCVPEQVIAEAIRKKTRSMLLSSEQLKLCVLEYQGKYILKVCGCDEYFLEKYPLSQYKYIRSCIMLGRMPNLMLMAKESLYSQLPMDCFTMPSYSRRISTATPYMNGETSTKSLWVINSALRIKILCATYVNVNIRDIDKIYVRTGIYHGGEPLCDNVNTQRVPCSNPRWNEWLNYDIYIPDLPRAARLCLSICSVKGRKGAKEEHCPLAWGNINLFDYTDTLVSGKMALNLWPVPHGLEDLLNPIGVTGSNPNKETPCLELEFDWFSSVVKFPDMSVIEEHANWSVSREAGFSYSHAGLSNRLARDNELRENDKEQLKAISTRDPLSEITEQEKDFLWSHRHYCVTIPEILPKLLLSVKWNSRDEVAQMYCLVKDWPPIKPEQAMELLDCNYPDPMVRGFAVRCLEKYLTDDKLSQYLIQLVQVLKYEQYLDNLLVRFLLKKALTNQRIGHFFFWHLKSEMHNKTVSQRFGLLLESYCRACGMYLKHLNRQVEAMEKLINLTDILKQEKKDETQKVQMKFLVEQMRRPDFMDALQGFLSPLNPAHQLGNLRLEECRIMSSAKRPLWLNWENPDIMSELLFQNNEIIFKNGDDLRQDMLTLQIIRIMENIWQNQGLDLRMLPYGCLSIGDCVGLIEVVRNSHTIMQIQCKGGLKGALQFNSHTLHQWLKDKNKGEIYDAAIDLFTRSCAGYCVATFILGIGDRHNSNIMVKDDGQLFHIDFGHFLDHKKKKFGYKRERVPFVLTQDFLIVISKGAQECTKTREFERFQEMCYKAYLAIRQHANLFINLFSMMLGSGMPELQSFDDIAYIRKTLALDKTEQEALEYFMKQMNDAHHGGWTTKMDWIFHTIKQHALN

| SMILES | pIC50 (PI3K [1]) | pIC50 (PI3K [2]) | pIC50 (prostate line LNCap) | pIC50 (Human mTOR (FLAG-TOR)) | pIC50 (breast line MDA468) |
| --- | --- | --- | --- | --- | --- |
| CN1CCN(CCNC(=O)Nc2ccc(-c3nc(N4CC5CCC(C4)O5)c4cnn(C5CCC6(CC5)OCCO6)c4n3)cc2)CC1 [Example 134, 1-{4-[1-(1,4-dioxaspiro[4.5]dec-8-yl)-4-(8-oxa-3-azabicyclo[3.2.1]oct-3-yl)-1H-pyrazolo[3,4-d]pyrimidin-6-yl]phenyl}-3-[2-(4-methylpiperazin-1-yl)ethyl]urea] | 5.61 | < 5.00 | 6.41 | 7.76 | 5.40 |
| CN1CCN(c2ccc(NC(=O)Nc3ccc(-c4nc(N5CC6CCC(C5)O6)c5cnn(C6CCC7(CC6)OCCO7)c5n4)cc3)cc2)CC1 [Example 135, 1-{4-[1-(1,4-dioxaspiro[4.5]dec-8-yl)-4-(8-oxa-3-azabicyclo[3.2.1]oct-3-yl)-1H-pyrazolo[3,4-d]pyrimidin-6-yl]phenyl}-3-[4-(4-methylpiperazin-1-yl)phenyl]urea] | 6.84 | 5.77 | 9.00 | 9.57 | 9.00 |
| COC(=O)Nc1ccc(-c2nc(N3CC4CCC(C3)O4)c3cnn(C4CCC(=O)CC4)c3n2)cc1 [Example 136, methyl {4-[4-(8-oxa-3-azabicyclo[3.2.1]oct-3-yl)-1-(4-oxocyclohexyl)-1H-pyrazolo[3,4-d]pyrimidin-6-yl]phenyl}carbamate] | 5.41 | < 5.00 | 7.40 | 8.20 | 5.96 |
| COC(=O)Nc1ccc(-c2nc(N3CC4CCC(C3)O4)c3cnn(C4CCC(O)CC4)c3n2)cc1 (stereo not drawn) [Example 137, methyl {4-[1-(4-hydroxycyclohexyl)-4-(8-oxa-3-azabicyclo[3.2.1]oct-3-yl)-1H-pyrazolo[3,4-d]pyrimidin-6-yl]phenyl}carbamate] | 5.18 | < 5.00 | 6.70 | 8.43 | 5.77 |
| COC(=O)Nc1ccc(-c2nc(N3CC4CCC(C3)O4)c3cnn(C(C)C)c3n2)cc1 [Example 138, methyl {4-[1-isopropyl-4-(8-oxa-3-azabicyclo[3.2.1]oct-3-yl)-1H-pyrazolo[3,4-d]pyrimidin-6-yl]phenyl}carbamate] | 5.98 | 5.42 | 7.10 | 8.89 | 6.29 |
| CNC(=O)Nc1ccc(-c2nc(N3CC4CCC(C3)O4)c3cnn(C(C)C)c3n2)cc1 [Example 139, 1-{4-[1-isopropyl-4-(8-oxa-3-azabicyclo[3.2.1]oct-3-yl)-1H-pyrazolo[3,4-d]pyrimidin-6-yl]phenyl}-3-methylurea] | 6.63 | 5.21 | 8.30 | 9.94 | 7.30 |
| CCNC(=O)Nc1ccc(-c2nc(N3CC4CCC(C3)O4)c3cnn(C(C)C)c3n2)cc1 [Example 140, 1-ethyl-3-{4-[1-isopropyl-4-(8-oxa-3-azabicyclo[3.2.1]oct-3-yl)-1H-pyrazolo[3,4-d]pyrimidin-6-yl]phenyl}urea] | 6.13 | 5.23 | 9.00 | 9.85 | 7.49 |
| CC(C)n1ncc2c(N3CC4CCC(C3)O4)nc(-c3ccc(NC(=O)NCCF)cc3)nc21 [Example 141, 1-(2-fluoroethyl)-3-{4-[1-isopropyl-4-(8-oxa-3-azabicyclo[3.2.1]oct-3-yl)-1H-pyrazolo[3,4-d]pyrimidin-6-yl]phenyl}urea] | 6.19 | 5.20 | 9.00 | 9.81 | 7.40 |
| CC(C)n1ncc2c(N3CC4CCC(C3)O4)nc(-c3ccc(NC(=O)NC4CC4)cc3)nc21 [Example 142, 1-cyclopropyl-3-{4-[1-isopropyl-4-(8-oxa-3-azabicyclo[3.2.1]oct-3-yl)-1H-pyrazolo[3,4-d]pyrimidin-6-yl]phenyl}urea] | 6.02 | 5.27 | 9.00 | 9.70 | 7.32 |
| CC(C)n1ncc2c(N3CC4CCC(C3)O4)nc(-c3ccc(NC(=O)NCCO)cc3)nc21 [Example 143, 1-(2-hydroxyethyl)-3-{4-[1-isopropyl-4-(8-oxa-3-azabicyclo[3.2.1]oct-3-yl)-1H-pyrazolo[3,4-d]pyrimidin-6-yl]phenyl}urea] | 6.61 | 5.34 | 8.00 | 10.12 | 7.15 |
| CC(C)n1ncc2c(N3CC4CCC(C3)O4)nc(-c3ccc(NC(=O)OCCO)cc3)nc21 [Example 144, 2-hydroxyethyl {4-[1-isopropyl-4-(8-oxa-3-azabicyclo[3.2.1]oct-3-yl)-1H-pyrazolo[3,4-d]pyrimidin-6-yl]phenyl}carbamate] | 6.08 | 4.96 | 7.64 | 9.57 | 6.57 |
| CC(C)n1ncc2c(N3CC4CCC(C3)O4)nc(-c3ccc(NC(=O)OCCCO)cc3)nc21 [Example 145, 3-hydroxypropyl {4-[1-isopropyl-4-(8-oxa-3-azabicyclo[3.2.1]oct-3-yl)-1H-pyrazolo[3,4-d]pyrimidin-6-yl]phenyl}carbamate] | 5.47 | < 5.00 | 6.60 | 8.56 | 4.92 |
| CC(C)n1ncc2c(N3CC4CCC(C3)O4)nc(-c3ccc(NC(=O)OCC(O)CO)cc3)nc21 (stereo not drawn) [Example 146, 2,3-dihydroxypropyl {4-[1-isopropyl-4-(8-oxa-3-azabicyclo[3.2.1]oct-3-yl)-1H-pyrazolo[3,4-d]pyrimidin-6-yl]phenyl}carbamate] | 5.67 | 5.12 | 6.96 | 8.54 | 6.24 |
| CC(C)n1ncc2c(N3CC4CCC(C3)O4)nc(-c3ccc(NC(=O)Nc4ccccc4)cc3)nc21 [Example 147, 1-{4-[1-isopropyl-4-(8-oxa-3-azabicyclo[3.2.1]oct-3-yl)-1H-pyrazolo[3,4-d]pyrimidin-6-yl]phenyl}-3-phenylurea] | 7.52 | 6.32 | > 9.00 | 9.73 | 7.74 |
| CC(C)n1ncc2c(N3CC4CCC(C3)O4)nc(-c3ccc(NC(=O)Nc4cccnc4)cc3)nc21 [Example 148, 1-{4-[1-isopropyl-4-(8-oxa-3-azabicyclo[3.2.1]oct-3-yl)-1H-pyrazolo[3,4-d]pyrimidin-6-yl]phenyl}-3-pyridin-3-ylurea] | 7.31 | 6.11 | > 9.00 | 10.19 | 8.05 |
| CC(C)n1ncc2c(N3CC4CCC(C3)O4)nc(-c3ccc(NC(=O)Nc4ccncc4)cc3)nc21 [Example 149, 1-{4-[1-isopropyl-4-(8-oxa-3-azabicyclo[3.2.1]oct-3-yl)-1H-pyrazolo[3,4-d]pyrimidin-6-yl]phenyl}-3-pyridin-4-ylurea] | 7.40 | 6.47 | > 9.00 | 9.90 | 8.40 |
| CNC(=O)Nc1ccc(-c2nc(N3CC4CCC(C3)O4)c3cnn(C4CCC(OC)(OC)CC4)c3n2)cc1 [Example 150, 1-{4-[1-(4,4-dimethoxycyclohexyl)-4-(8-oxa-3-azabicyclo[3.2.1]oct-3-yl)-1H-pyrazolo[3,4-d]pyrimidin-6-yl]phenyl}-3-methylurea] | 6.19 | < 5.00 | 8.70 | 9.13 | 7.46 |
| CNC(=O)Nc1ccc(-c2nc(N3CC4CCC(C3)O4)c3cnn(C4CCC5(CC4)OCCCO5)c3n2)cc1 [Example 151, 1-{4-[1-(1,5-dioxaspiro[5.5]undec-9-yl)-4-(8-oxa-3-azabicyclo[3.2.1]oct-3-yl)-1H-pyrazolo[3,4-d]pyrimidin-6-yl]phenyl}-3-methylurea] | 6.44 | < 5.00 | 8.10 | 8.92 | 6.89 |
| CNC(=O)Nc1ccc(-c2nc(N3CC4CCC(C3)O4)c3cnn(C4CCC5(CC4)OCC(C)(C)CO5)c3n2)cc1 [Example 152, 1-{4-[1-(3,3-dimethyl-1,5-dioxaspiro[5.5]undec-9-yl)-4-(8-oxa-3-azabicyclo[3.2.1]oct-3-yl)-1H-pyrazolo[3,4-d]pyrimidin-6-yl]phenyl}-3-methylurea] | 6.25 | < 5.00 | 8.52 | 9.22 | 6.74 |
| CNC(=O)Nc1ccc(-c2nc(N3CC4CCC(C3)O4)c3cnn(CCN(C)C)c3n2)cc1 [Example 153, 1-(4-{1-[2-(dimethylamino)ethyl]-4-(8-oxa-3-azabicyclo[3.2.1]oct-3-yl)-1H-pyrazolo[3,4-d]pyrimidin-6-yl}phenyl)-3-methylurea] | 6.02 | 5.37 | 6.40 | 7.84 | 5.66 |
| COC(=O)Nc1ccc(-c2nc(N3CC4CCC(C3)O4)c3cnn(CCN(C)C)c3n2)cc1 [Example 154, methyl (4-{1-[2-(dimethylamino)ethyl]-4-(8-oxa-3-azabicyclo[3.2.1]oct-3-yl)-1H-pyrazolo[3,4-d]pyrimidin-6-yl}phenyl)carbamate] | 5.37 | < 5.00 | 5.54 | 7.07 | 4.72 |

— patent US8129371B2, “Thienopyrimidine and pyrazolopyrimidine compounds and their use as mTOR kinase and PI3 kinase inhibitors” (Wyeth LLC, priority 2007, dated 2012)
